± gives the standard deviation of the reports.
| Compound | glass transition temperature [°C] |
| --- | --- |
| *Oc1ccc(Oc2ccc(C(=O)Nc3ccc(Oc4ccc(-c5ccc(Oc6ccc(NC(=O)c7ccc(*)cc7)cc6)cc5)cc4)cc3)cc2)cc1-c1ccccc1 (repeat unit) | 232.00 |
| *C(=O)OCCN(CCOC(=O)c1ccc2c(c1)C(=O)N(c1cccc(N3C(=O)c4ccc(*)cc4C3=O)c1)C2=O)c1ccc(/N=N/c2ccc([N+](=O)[O-])cc2)cc1 (repeat unit) | 210.00 |
| *Oc1ccc(C(C)(C)c2ccc(OC(=O)c3ccc([Si](c4ccccc4)(c4ccccc4)c4ccc(C(*)=O)cc4)cc3)cc2)cc1 (repeat unit) | 295.00 |
| *Nc1ccc(Cc2ccc(NC(=O)c3cc(NC(=O)CCCN4C(=O)c5ccccc5C4=O)cc(C(*)=O)c3)cc2)cc1 (repeat unit) | 220.00 |
| *OS(=O)(=O)c1cc(S(=O)(=O)Oc2ccc(C3(c4ccc(*)cc4)CCCC3)cc2)ccc1C (repeat unit) | 134.00 |
| *c1ccc(-c2cc(-c3ccc(-c4ccccc4)cc3)cc(-c3ccc(N4C(=O)c5ccc(NC(=O)Nc6ccc(-c7cc(-c8ccc(-c9ccccc9)cc8)cc(-c8ccc(NC(=O)Nc9ccc%10c(c9)C(=O)N(*)C%10=O)cc8)n7)cc6)cc5C4=O)cc3)n2)cc1 (repeat unit) | 272.00 |
| *C(=O)c1ccc2c(c1)C(=O)N(c1ccc(Oc3ccc(NC(=O)c4cccc(C(=O)Nc5ccc(Oc6ccc(N7C(=O)c8ccc(*)cc8C7=O)cc6)cc5)c4)cc3)cc1)C2=O (repeat unit) | 232.00 |
| *CCCCCCOC(=O)c1ccc(-c2ccc(-c3ccc(C(=O)O*)cc3)cc2)cc1 (repeat unit) | 60.00 |
| *OC1C(C)(C)C(OC(*)=O)C1(C)C (repeat unit) | 160.00 |
| *c1ccc(Oc2ccc(C(c3ccc(Oc4ccc(N5C(=O)c6ccc(Oc7c(C)cc(C(C)(C)c8cc(C)c(Oc9ccc%10c(c9)C(=O)N(*)C%10=O)c(C)c8)cc7C)cc6C5=O)cc4)cc3)(C(F)(F)F)C(F)(F)F)cc2)cc1 (repeat unit) | 244.00 |
| *Oc1ccc(C(=O)Nc2cc(NC(=O)c3ccc(*)cc3)cc(-c3nc4ccccc4[nH]3)c2)cc1 (repeat unit) | 335.00 |
| *c1ccc(Oc2cc3ccccc3cc2Oc2ccc(N3C(=O)c4ccc(-c5ccc6c(c5)C(=O)N(*)C6=O)cc4C3=O)cc2)cc1 (repeat unit) | 253.50 |
| *Oc1ccc(Cc2ccc(OC(=O)CCCCC(*)=O)cc2)cc1 (repeat unit) | 60.50 |
| *CC(*)c1ccc(COc2ccc(-c3ccc(-c4ccc(-c5ccc(CCCCCC)s5)s4)c4nsnc34)cc2)cc1 (repeat unit) | 122.00 |
| *OC(=O)C(CC(C)C)NC(=O)CCCCCCCCC(=O)NC(CC(C)C)C(=O)OC1COC2C(*)COC12 (repeat unit) | 89.00 |
| *CCCCCCCCCCCCNC(=O)NCCCCCCNC(=O)N* (repeat unit) | 49.00 |

| Compound | glass transition temperature [°C] |
| --- | --- |
| *c1ccc(-c2ccc(N3C(=O)c4ccc(-c5ccc6c(c5)C(=O)N(*)C6=O)cc4C3=O)cc2C(F)(F)F)c(C(F)(F)F)c1 (repeat unit) | 323.8 ± 24 |
| *CC(*)c1ccc(C(=O)C(F)(F)F)cc1 (repeat unit) | 95.00 |
| *Nc1ccc(C(C)(C)c2cccc(C(C)(C)c3ccc(NC(=C(C#N)C#N)c4ccc(C(*)=C(C#N)C#N)cc4)cc3)c2)cc1 (repeat unit) | 208.00 |
| *c1ccc(-c2nc3cc(C)ccc3o2)c(*)c1 (repeat unit) | 221.00 |
| *CC(COCCOCCOC)O* (repeat unit) | -57.00 |
| *C(=O)Nc1ccc(Oc2ccc(C3(c4ccc(Oc5ccc(NC(=O)c6ccc7c(c6)C(=O)N(c6ccc(Oc8cccc(Oc9ccc(N%10C(=O)c%11ccc(*)cc%11C%10=O)cc9)c8)cc6)C7=O)cc5)cc4)NC(=O)c4ccccc43)cc2)cc1 (repeat unit) | 267.00 |
| *CCOCCOC(=O)c1ccc(C(=O)O*)cc1 (repeat unit) | 21.90 |
| *c1ccc(Oc2cccc(Oc3ccc(-n4c(=O)c5cc6c(=O)n(*)c(=O)c6cc5c4=O)cc3)c2)cc1 (repeat unit) | 326.00 |
| *CCC/C=C(/*)c1ccc(Cl)cc1 (repeat unit) | 16.00 |
| *C(=O)Nc1ccc(Cc2ccc(NC(=O)c3ccc4c(c3)C(=O)N(c3ccc(NC(=O)Nc5ccc(N6C(=O)c7ccc(*)cc7C6=O)cc5)cc3)C4=O)cc2)cc1 (repeat unit) | 211.00 |
| *CCc1ccc(*)o1 (repeat unit) | 25.50 |
| *Oc1ccc(S(=O)(=O)c2ccc(OC(=O)c3ccc([Si](C)(C)c4ccc(C(*)=O)cc4)cc3)cc2)cc1 (repeat unit) | 235.00 |
| *CCCCCCCCCCCCNC(=O)CCCCCCCCCCCCCCCCC(=O)N* (repeat unit) | 46.50 |
| *Oc1ccc(Oc2ccc(C(=O)c3ccccc3)c(-c3cc(*)ccc3C(=O)c3ccccc3)c2)cc1 (repeat unit) | 156.00 |
| *CC(*)OCCCCCCCOc1ccc(-c2ccc(C#N)cc2)cc1 (repeat unit) | 13.00 |
